One experiment deals with M. abscessus. Nature of the experiment: MBC against M. abscessus. The settings on record: Mycobacteroides abscessus.
The test system of experiment [1] is OVCAR 3 ovarian cancer cells. The experiment can be described thus: Cytotoxicity against cancer cell lines (CellTiter 96). Particulars: Homo sapiens; OVCAR 3, 72 h. The format is cell-based. As for the experimental part: (§1) Human melanoma cancer cells (MDA-MB-435), human breast cancer cells (MDA-MB-231), and human ovarian cancer cells (OVCAR3) were purchased from the American Type Culture Collection (Manassas, VA). Each cell line was propagated at 37°C in 5% CO2 in RPMI 1640 medium supplemented with FBS (10%), penicillin (100 U/ml), and streptomycin (100 μg/ml). Cells in log phase were harvested by trypsinization, followed by two washing cycles to remove all traces of enzyme. A total of 5,000 cells were seeded per well of a 96-well clear, flat-bottom plate (Microtest 96; Falcon) and incubated overnight (37°C in 5% CO2). Samples dissolved in DMSO were then diluted and added to the respective wells. The cells were incubated in the presence of test substance for 72 h at 37°C and evaluated for viability with a commercial absorbance assay (CellTiter 96 AQueous One Solution cell proliferation assay; Promega Corp., Madison, WI) that measured viable cells. IC50 values are expressed in micromolar values relative to the solvent (DMSO) control.

The test system of experiment [2] is MDA-MB-231 breast cancer cells. The experiment is described as above. The format is cell-based. The settings on record: Homo sapiens, MDA-MB-231, 72 h. As for the experimental part:
as §1

Experiment [3] deals with MDA-MB-435 melanoma cells. The description is as above. The class given is cell-based. The settings on record: Homo sapiens, MDA-MB-435, 72 h. As to the method: as §1
A further experiment concerns M. tuberculosis. The experiment can be described thus: microbe, parasite or virus in culture. The class given is cell-based, Mycobacterium tuberculosis.

1 molecule from publication PMC6395927, “Rufomycin Targets ClpC1 Proteolysis in Mycobacterium tuberculosis and M. abscessus” (Antimicrobial Agents and Chemotherapy, 2019) can be followed below.

In brackets after ≈: the same amount, converted by molar mass.

Method for M. abscessus: Parallel plates were processed as described for M. tuberculosis. The plates were incubated at 37°C for 5 days before CFU determination.

For orientation: IC50 means the concentration that inhibits the measured activity by half. The low end stands for higher potency, the high end for lower potency. As for `C/C=C/C[C@@H]1NC(=O)[C@H](CC(C)C)N2C(=O)C(C[C@H](C)[C@H]2O)N(C)C(=O)[C@H](C)NC(=O)[C@H](Cc2ccc(O)c([N+](=O)[O-])c2)NC(=O)[C@H](CC(C)C)N(C)C(=O)[C@H](Cc2cn(C(C)(C)C3CO3)c3ccccc23)NC1=O` (stereo partly drawn) [RUFI, rufomycin I], the MBC against M. abscessus amounted to 1.2 µM (≈ 1.25 µg/mL); in the experiment on M. tuberculosis (Mycobacterium tuberculosis, read-out: MBC (minimum bactericidal concentration)), 0.4 µM (≈ 0.417 µg/mL). For the same molecule, the values for the concentration for half-maximal inhibition (IC50) in experiment [1], in experiment [2] and in experiment [3] were 14 µM, 7.7 µM and 12 µM, respectively. Also, in the experiment with M. tuberculosis, the “MBC (minimum bactericidal concentration)” value amounted to 0.40 µM (≈ 0.417 µg/mL).
